# Reference: patent publication US8846711B2, “Heterocyclic acrylamides and their use as pharmaceuticals” (Fab Pharma S.A.S., priority 2009, dated 2014)
# What was measured:
# [1] = tested on: Staphylococcus aureus NRS22; test: MIC determination using agar dilution method; format: cell-based; settings: MRSA / NRS 22, read-out: MIC (μg/ml) NRS22
# Description: (§1) Antibacterial activity was determined on strains from Mutabilis internal collection.
# (§2) This protocol is compliant with Clinical Laboratory Standards Institute (CLSI) methodology as described in M7-A7 document of the CLSI. The compound to be tested is incorporated into Mueller-Hinton Agar medium (Fluka, Reference 70191) at one concentration per plate according to a geometric series of reason 2. Plates are inoculated with mid-log phase bacteria (inoculum=1×10^4 cfu/spot) and incubated overnight at 35° C. […] All manipulations, but compound handling (in pure DMSO), are performed under sterile conditions. The final DMSO concentration of DMSO in the plates is 2%. Vancomycin is used as reference.
# [2] = tested on: Staphylococcus aureus NRS385; test: MIC determination using agar dilution method; format: cell-based; settings: MRSA / NRS 385, read-out: MIC (μg/ml) NRS385
# Description: as §1, §2
# [3] = tested on: Staphylococcus aureus NRS130; test: MIC determination using agar dilution method; format: cell-based; settings: MSSA / NRS 130, read-out: MIC (μg/ml) NRS130
# Description: as §1, §2
# [4] = tested on: Staphylococcus aureus NRS123; test: MIC determination using agar dilution method; format: cell-based; settings: MRSA / NRS 123, read-out: MIC (μg/ml) NRS123
# Description: as §1, §2
# [5] = tested on: Staphylococcus aureus NRS192; test: MIC determination using agar dilution method; format: cell-based; settings: MRSA / NRS 192, read-out: MIC (μg/ml) NRS192
# Description: as §1, §2
# [6] = tested on: Staphylococcus aureus NRS482; test: MIC determination using agar dilution method; format: cell-based; settings: MRSA / NRS 482, read-out: MIC (μg/ml) NRS482
# Description: as §1, §2
# [7] = tested on: Staphylococcus aureus NRS386; test: MIC determination using agar dilution method; format: cell-based; settings: MRSA / NRS 386, read-out: MIC (μg/ml) NRS386
# Description: as §1, §2
# [8] = tested on: Staphylococcus aureus NRS483; test: MIC determination using agar dilution method; format: cell-based; settings: MRSA / NRS 483, read-out: MIC (μg/ml) NRS483
# Description: as §1, §2
# [9] = tested on: Staphylococcus aureus NRS262; test: MIC determination using agar dilution method; format: cell-based; settings: MSSA / NRS 262, read-out: MIC (μg/ml) NRS262
# Description: as §1, §2
# [10] = tested on: Staphylococcus aureus NRS484; test: MIC determination using agar dilution method; format: cell-based; settings: MRSA / NRS 484, read-out: MIC (μg/ml) NRS484
# Description: as §1, §2
# [11] = tested on: Staphylococcus aureus NRS119; test: MIC determination using agar dilution method; format: cell-based; settings: MRSA / NRS 119, read-out: MIC (μg/ml) NRS119
# Description: as §1, §2
# [12] = tested on: Staphylococcus aureus NRS100; test: MIC determination using agar dilution method; format: cell-based; settings: MRSA / NRS 100, read-out: MIC (μg/ml) NRS100
# Description: as §1, §2
# [13] = tested on: Staphylococcus aureus NRS121; test: MIC determination using agar dilution method; format: cell-based; settings: MRSA / NRS 121, read-out: MIC (μg/ml) NRS121
# Description: as §1, §2
# [14] = tested on: Staphylococcus aureus NRS127; test: MIC determination using agar dilution method; format: cell-based; settings: MRSA / NRS 127, read-out: MIC (μg/ml) NRS127
# Description: as §1, §2
# [15] = tested on: Staphylococcus aureus NRS384; test: MIC determination using agar dilution method; format: cell-based; settings: MRSA / NRS 384, read-out: MIC (μg/ml) NRS384
# Description: as §1, §2
# [16] = tested on: Staphylococcus aureus NRS269; test: MIC determination using agar dilution method; format: cell-based; settings: MRSA / NRS 269, read-out: MIC (μg/ml) NRS269
# Description: as §1, §2
# [17] = tested on: Staphylococcus aureus NRS382; test: MIC determination using agar dilution method; format: cell-based; settings: MRSA / NRS 382, read-out: MIC (μg/ml) NRS382
# Description: as §1, §2
# [18] = tested on: Staphylococcus aureus NRS383; test: MIC determination using agar dilution method; format: cell-based; settings: MRSA / NRS 383, read-out: MIC (μg/ml) NRS383
# Description: as §1, §2
# [19] = tested on: Staphylococcus aureus NRS128; test: MIC determination using agar dilution method; format: cell-based; settings: MSSA / NRS 128, read-out: MIC (μg/ml) NRS128
# Description: as §1, §2
# [20] = tested on: Staphylococcus aureus NRS120; test: MIC determination using agar dilution method; format: cell-based; settings: MRSA / NRS 120, read-out: MIC (μg/ml) NRS120
# Description: as §1, §2
# [21] = biological target: recombinant S. aureus FabI enzyme (Staphylococcus aureus (strain MRSA252), UniProt Q6GI75); test: FabI inhibition, fluorescence based assay; format: biochemical; settings: in vitro
# Description: Compound inhibitory activity of FabI enzyme is measured in vitro by the […] determination using a fluorescence based assay.
# The protein FabI from S. aureus is prepared and purified using standard methods for recombinant protein expression after cloning of the gene in a prokaryotic expression vector.
# The biochemical activity of the FabI enzyme is assessed using the following method.
# The assay buffer “AB” contained 50 mM ADA (N-(2-acetamido)iminodiacetic acid monosodium salt) pH 6.5, 1 mM dithiothreitol, 0.006% Triton-X100 and 50 mM NaCl.
# The following components are added in a white polystyrene Costar plate (Ref 3912) up to a final volume of 55.5 μL: 1.5 μL DMSO or inhibitor dissolved in DMSO and 54 μL of a FabI/NADPH/NADP+ mixture in AB. After 60 min of pre-incubation at room temperature, the reaction is started by addition of 5 μL of trans-2-octenoyl N-acetylcysteamine thioester (t-o-NAC) to a final volume of 60.5 μL. This reaction mixture is then composed of 2 nM FabI, 40 μM NADPH (Sigma, N7505), 10 μM NADP+ (Sigma, N5755), 100 μM t-O-NAC and compound at defined concentration. Fluorescence intensity of NADPH (λex=360 nm, […]) is measured immediately after t-O-NAC addition (T0), and approximately 50 min later (T50) by a Fluostar Optima (BMG) so as to achieve ±30% of NADPH conversion. Enzyme activity is calculated by first subtracting TO signal to T50 and then subtracting background signal (FabI=0). Percentages of inhibition are calculated against untreated samples (Inhibitor=0) and IC50 are fitted to a classical Langmuir equilibrium model using XLFIT (IDBS).
# [22] = tested on: Staphylococcus aureus strain ATCC 29213; test: In vivo antibacterial activity, thigh infection model in neutropenic Swiss mice; settings: 50 mg/kg subcutaneously, 1.5 h after infection, FIG. 2
# S. aureus CIP 54.146 = test: MIC determination using broth microdilution method; format: cell-based; settings: Staphylococcus aureus, CIP54 / MSSA, read-out: MIC (μg/ml) S. aureus CIP 54.146
# Description: The compounds of the invention are useful antibacterial agents having a selective spectrum of activity in vitro against bacterial strains relying on FabI and related targets. […] The activity is presented as Minimum Inhibitory Concentration (MIC) expressed in μg/ml and was determined using broth microdilution or Agar dilution methods.
# as §1
# This protocol is compliant with Clinical Laboratory Standards Institute (CLSI) methodology as described in M7-A7 document of the CLSI. The compound to be tested is diluted according to a geometric series of reason 2 in pure DMSO. Dilutions are transferred in sterile polystyrene microplates, followed by mid-log phase bacteria in cation-adjusted Muller-Hinton broth (ca-MHB, Fluka, Reference 90922) with a final inoculum of 5×10^5 cfu/ml. Microplates are incubated overnight at 35° C. MIC is defined as the lowest concentration of antimicrobial agent that completely prevents visible bacterial growth. All manipulations, but compound handling (in pure DMSO), are performed under sterile conditions. The final concentration of DMSO in the plates is 2%.
# E. coli FabI = E. coli FabI (Escherichia coli (strain K12), UniProt P0AEK4); settings: literature (Ward et al.); cited from earlier work
# Sequence of E. coli FabI (P0AEK4 whole entry): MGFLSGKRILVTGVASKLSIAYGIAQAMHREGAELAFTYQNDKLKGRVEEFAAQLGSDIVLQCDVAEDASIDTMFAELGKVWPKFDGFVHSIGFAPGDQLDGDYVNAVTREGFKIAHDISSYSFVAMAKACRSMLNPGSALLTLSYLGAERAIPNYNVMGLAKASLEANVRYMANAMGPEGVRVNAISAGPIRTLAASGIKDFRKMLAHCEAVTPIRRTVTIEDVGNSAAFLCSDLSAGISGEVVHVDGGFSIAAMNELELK
Structure (SMILES),MIC [1],MIC [2],MIC [3],MIC [4],MIC [5],MIC [6],MIC [7],MIC [8],MIC [9],MIC [10],MIC [11],MIC [12],MIC [13],MIC [14],MIC [15],MIC [16],MIC [17],MIC [18],IC50 [21],MIC (S. aureus CIP 54.146),further results
"CN[C@H](CC(C)C)C(=O)N[C@H]1C(=O)N[C@@H](CC(N)=O)C(=O)N[C@H]2C(=O)N[C@H]3C(=O)N[C@H](C(=O)N[C@H](C(=O)O)c4cc(O)cc(O)c4-c4cc3ccc4O)[C@H](O)c3ccc(c(Cl)c3)Oc3cc2cc(c3O[C@@H]2O[C@H](CO)[C@@H](O)[C@H](O)[C@H]2O[C@H]2C[C@](C)(N)[C@H](O)[C@H](C)O2)Oc2ccc(cc2Cl)[C@H]1O [Vancomycin, reference compound]",4 µg/mL,1 µg/mL,1 µg/mL,1 µg/mL,1 µg/mL,1 µg/mL,1 µg/mL,1 µg/mL,1 µg/mL,1 µg/mL,1 µg/mL,1 µg/mL,1 µg/mL,1 µg/mL,1 µg/mL,2 µg/mL,1 µg/mL,0.5 µg/mL,,,MIC [19]: 1 µg/mL; MIC [20]: 1 µg/mL
"CCCCCOC1CN(C(=O)/C=C/c2cnc3c(c2)CCC(=O)N3)C1 [Example 15, 6-{(1E)-3-Oxo-3-[3-(pentyloxy)azetidin-1-yl]prop-1-en-1-yl}-3,4-dihydro-1,8-naphthyridin-2(1H)-one]",4 µg/mL,4 µg/mL,2 µg/mL,2 µg/mL,4 µg/mL,4 µg/mL,4 µg/mL,4 µg/mL,4 µg/mL,4 µg/mL,2 µg/mL,1 µg/mL,2 µg/mL,2 µg/mL,4 µg/mL,4 µg/mL,4 µg/mL,4 µg/mL,25 nM,4 µg/mL,MIC [19]: 1 µg/mL; MIC [20]: 2 µg/mL; in vivo antibacterial activity (bacterial burden in the thigh of infected mice) [22]: able to protect mice against thigh dissemination
Oc1cc(Cl)ccc1Oc1ccc(Cl)cc1Cl [Triclosan],,,,,,,,,,,,,,,,,,,,,"inhibition of E. coli FabI (E. coli FabI): reversible, tight-binding inhibitor"
"O=C1CCc2cc(/C=C/C(=O)N3CCC(Oc4ccccc4)C3)cnc2N1 (stereo not drawn) [Example 10, 6-[(1E)-3-Oxo-3-(3-phenoxypyrrolidin-1-yl)prop-1-en-1-yl]-3,4-dihydro-1,8-naphthyridin-2(1H)-one]",,,,,,,,,,,,,,,,,,,120 nM,4 µg/mL,
"CCCC1CCN(C(=O)/C=C/c2cnc3c(c2)CCC(=O)N3)CC1 [Example 8, 6-[(1E)-3-Oxo-3-(4-propylpiperidin-1-yl)prop-1-en-1-yl]-3,4-dihydro-1,8-naphthyridin-2(1H)-one]",,,,,,,,,,,,,,,,,,,41 nM,4 µg/mL,
